# Data reported in patent publication US20230051589A1, “COMPOUNDS AND COMPOSITIONS FOR TREATING CONDITIONS ASSOCIATED WITH NLRP ACTIVITY” (Novartis AG, priority 2018, published 2023).
# Like-named read-outs stand apart in the source and are kept apart here.
# System: IL-1β production in PMA-differentiated THP-1 cells
# Test: IL-1β production in PMA-differentiated THP-1 cells stimulated with gramicidin (hTHP-1 assay, 2% fetal bovine serum; Procedures 1-3)
# Format: cell-based, human
# Outline: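 PMA-primed THP-1 cells (20 ng/ml PMA, 16-18 h) in RPMI with 2% FBS were pre-incubated with compounds for 1 h, from 100 μM downward in 3-fold steps (0.37% DMSO final), then stimulated with 5 μM gramicidin for 2 h. IL-1β in the supernatant was quantified by HTRF.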
# [1] = hTHP-1 assay containing 2% fetal bovine serum, Table B2, class symbols, read-out: IC50
# [2] = Table B3, hTHP-1 assay containing 2% fetal bovine serum, gramicidin stimulation, IL-1β readout, read-out: hTHP-1 IC50
# [3] = Homo sapiens, THP-1, hTHP-1 assay containing 2% fetal bovine serum, Table B2, class symbols, read-out: IC50
compound,measurement,setting,value
"CC(C)(O)c1ccc(S(N)(=O)=NC(=O)Nc2c3c(c(C#N)c4c2CCC4)CCC3)cn1 (single isomer, unassigned) [Example 544, (S) or (R)-N′-((8-cyano-1,2,3,5,6,7-hexahydro-s-indacen-4-yl)carbamoyl)-6-(2-hydroxypropan-2-yl)pyridine-3-sulfonimidamide]",IC50,[1],5 to 30 µM
"CC(NC1CCC1)c1ccc(S(N)(=O)=NC(=O)Nc2c3c(cc4c2CC4)CCC3)c(F)c1 (single isomer, unassigned) [Example 845, (R/S, R)-4-(1-(cyclobutylamino)ethyl)-2-fluoro-N′-((2,4,5,6-tetrahydro-1H-cyclobuta[f]inden-3-yl)carbamoyl)benzenesulfonimidamide]",IC50,[2],0.2 to 1 µM
"CN(C)Cc1ccc(S(N)(=O)=NC(=O)Nc2c3c(cc4c2CCC4)CCC3)cn1 (single isomer, unassigned) [Example 617, (R) or (S)-6-((dimethylamino)methyl)-N′-((1,2,3,5,6,7-hexahydro-s-indacen-4-yl)carbamoyl) pyridine-3-sulfonimidamide]",IC50,[1],0.2 to 1 µM
"CC(C)(O)c1csc(S(N)(=O)=NC(=O)Nc2c3c(cc4c2CCC4=O)CCC3)c1 (stereo not drawn) [Example 434, 4-(2-Hydroxypropan-2-yl)-N′-((1-oxo-1,2,3,5,6,7-hexahydro-s-indacen-4-yl)carbamoyl)thiophene-2-sulfonimidamide]",IC50,[3],0.2 to 1 µM
"NS(=O)(=NC(=O)Nc1c2c(cc3c1CC3)CCC2)c1cc2c(s1)CCNC2C(F)F (single isomer, unassigned) [Example 783, (R) or (S) -4-(difluoromethyl)-N′-((2,4,5,6-tetrahydro-1H-cyclobuta[f]inden-3-yl)carbamoyl)-4,5,6,7-tetrahydrothieno[3,2-c]pyridine-2-sulfonimidamide]",IC50,[2],0.2 to 1 µM
"NS(=O)(=NC(=O)Nc1c2c(cc3c1CCC3)CCC2)c1ccc(CN2CCC(F)(F)C2)cc1 (single isomer, unassigned) [Example 620, (R) or (S)-4-((3,3-difluoropymolidin-1-yl)methyl)-N′-((1,2,3,5,6,7-hexahydro-s-indacen-4-yl)carbamoyl) benzenesulfonimidamide]",IC50,[3],1 to 5 µM
"CN(C)C(c1ccc(S(N)(=O)=NC(=O)Nc2c3c(cc4c2CCC4)CCC3)cc1)C(F)(F)F (single isomer, unassigned) [Example 666, (R,S) or (S,S)-4-(1-(dimethylamino)-2,2,2-trifluoroethyl)-N′-((1,2,3,5,6,7-hexahydro-s-indacen-4-yl)carbamoyl) benzenesulfonimidamide]",IC50,"hTHP-1 assay containing 2% fetal bovine serum, Table B2, given as bound, read-out: IC50",> 30 µM
"CC(C)(O)c1cnc([S@](N)(=O)=NC(=O)Nc2c3c(cc4c2CCC4O)CCC3)s1 (stereo partly drawn) [Example 512, (R)-N′-((1-hydroxy-1,2,3,5,6,7-hexahydro-s-indacen-4-yl)carbamoyl)-5-(2-hydroxypropan-2-yl)thiazole-2-sulfonimidamide]",IC50,[3],1 to 5 µM
N[S@@](=O)(=NC(=O)Nc1c2c(cc3c1CCC3)CCC2)c1ccc([C@@H]2CCCN2)s1 [Compound 921c],IC50,[3],1 to 5 µM
"CNC(c1ccc(S(N)(=O)=NC(=O)Nc2c3c(cc4c2CC4)CCC3)s1)C1CC1 (stereo not drawn) [Example 719, 5-(Cyclopropyl(methylamino)methyl)-N′-((2,4,5,6-tetrahydro-1H-cyclobuta[f]inden-3-yl)carbamoyl)thiophene-2-sulfonimidamide]",IC50,"Homo sapiens, THP-1, Table B3, hTHP-1 assay containing 2% fetal bovine serum, gramicidin stimulation, IL-1β readout, read-out: hTHP-1 IC50",0.008 to 0.04 µM
"CO[C@H]1COc2c(S(N)(=O)=NC(=O)Nc3c4c(cc5c3CCC5)CCC4)cnn2C1 (single isomer, unassigned) [Example 695, (R) or (S)-(6R)-N′-((1,2,3,5,6,7-hexahydro-s-indacen-4-yl)carbamoyl)-6-methoxy-6,7-dihydro-5H-pyrazolo[5,1-b][1,3]oxazine-3-sulfonimidamide]",IC50,[1],0.04 to 0.2 µM
"COc1cc(CN(C)C)ccc1S(N)(=O)=NC(=O)Nc1c2c(cc3c1CCC3)CCC2 (single isomer, unassigned) [Example 607, (S) or (R)-4-((dimethylamino)methyl)-N′-((1,2,3,5,6,7-hexahydro-s-indacen-4-yl)carbamoyl)-2-methoxybenzene-sulfonimidamide]",IC50,"Homo sapiens, THP-1, hTHP-1 assay containing 2% fetal bovine serum, Table B2, given as bound, read-out: IC50",> 30 µM
"COC1CN(Cc2ccc(S(N)(=O)=NC(=O)Nc3c4c(cc5c3CCC5)CCC4)cc2)C1 (single isomer, unassigned) [Example 379, (R) or (S)-N′-((1,2,3,5,6,7-hexahydro-s-indacen-4-yl)carbamoyl)-4-((3-methoxyazelidin-1-yl)-methyl)benzenesulfonimid-amide]",IC50,"Table B1, hTHP-1 assay containing 2% fetal bovine serum, gramicidin stimulation, IL-1β readout, read-out: hTHP-1 IC50 (average)",1 to 5 µM
"NS(=O)(=NC(=O)Nc1c2c(cc3c1CCC3)CCC2)c1cnc(C(O)(CO)CO)s1 (stereo not drawn) [Example 460, N′-((1,2,3,5,6,7-hexahydro-s-indacen-4-yl)carbamoyl)-2-(1,2,3-trihydroxypropan-2-yl) thiazole-5-sulfonimidamide]",IC50,[3],0.04 to 0.2 µM
"NS(=O)(=NC(=O)Nc1c2c(cc3c1CCC3)CCC2)c1cccc(CN2CCOCC2)c1 (stereo not drawn) [Example 503, N′-((1,2,3,5,6,7-hexahydro-s-indacen-4-yl)carbamoyl)-3-(morpholinomethyl)benzenesulfonimidamide]",IC50,[3],1 to 5 µM
"CC(C)n1nc(S(N)(=O)=NC(=O)Nc2c3c(c(C#N)c4c2CCC4)CCC3)cc1CO (single isomer, unassigned) [Example 549, (S) or (R)-N′-((8-cyano-1,2,3,5,6,7-hexahydro-s-indacen-4-yl)carbamoyl)-5-(hydroxymethyl)-1-isopropyl-1H-pyrazole-3-sulfonimidamide]",IC50,[1],5 to 30 µM
"C=CCc1c2c(c(NC(=O)N=S(N)(=O)c3cc(C(C)(C)O)n(-c4ccccc4)n3)c3c1CCC3)CCC2 (single isomer, unassigned) [Example 566, (R) or (S)-N′-((8-allyl-1,2,3,5,6,7-hexahydro-s-indacen-4-yl)carbamoyl)-5-(2-hydroxypropan-2-yl)-1-phenyl-1H-pyrazole-3-sulfonimidaimde]",IC50,[1],1 to 5 µM
"Cc1c(C2CC2)cc2c(c1NC(=O)N=S(N)(=O)c1cnc(C(C)(C)O)s1)CCC2 (single isomer, unassigned) [Example 562, (S) or (R)-N′-((6-cyclopropyl-5-methyl-2,3-dihydro-1H-inden-4-yl)carbamoyl)-2-(2-hydroxypropan-2-yl)thiazole-5-sulfonimidamide]",IC50,[1],1 to 5 µM
"NS(=O)(=NC(=O)Nc1c2c(cc3c1CCC3)CCC2)c1ccc(C2CCCN2)cc1 (single isomer, unassigned) [Example 648, (R,R) or (S,R)-N′-((1,2,3,5,6,7-hexahydro-s-indacen-4-yl)carbamoyl)-4-(pyrrolidin-2-yl) benzenesulfonimidamide]",IC50,[3],1 to 5 µM
"NS(=O)(=NC(=O)Nc1c2c(cc3c1CCC3)CCC2)c1ccc(C2CCN2)cc1 (single isomer, unassigned) [Example 865, (S, S) or (R, S)-4-(azetidin-2-yl)-N′-((1,2,3,5,6,7-hexahydro-s-indacen-4-yl)carbamoyl)benzenesulfonimidamide]",IC50,[2],5 to 30 µM
"CC(C)(O)c1cc(F)c(S(N)(=O)=NC(=O)Nc2c3c(cc4c2CCC4=O)CCC3)s1 (single isomer, unassigned) [Example 600, (R) or (S)-3-fluoro-5-(2-hydroxypropan-2-yl)-N′-((1-oxo-1,2,3,5,6,7-hexahydro-s-indacen-4-yl)carbamoyl)thiophene-2-sulfonimidamide]",IC50,[1],0.2 to 1 µM
